Data published in the supplement of paper PMC10307832.

Tests used:
Experiment in all cases: relative viability (nuclei count vs DMSO), 5 days (fraction); higher = more cells survive
[1] = compound: OCc1c[nH]c2ccccc12 [Indole-3-carbinol] + O=C(c1cc(Cc2n[nH]c(=O)c3ccccc23)ccc1F)N1CCN(C(=O)C2CC2)CC1 [Olaparib] (partner 8 µM)
In short: (§1)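 Five library-drug doses in √10 steps were combined with a fixed anchor-drug dose, or a single drug was given alone, by pin tool to lung cancer cell lines in 1536-well plates the day after seeding. Nuclei were stained and counted after 5 days. Relative viability is the nuclei count in treated wells over that in vehicle wells, taken as the median of duplicate plates.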

[2] = compound: OCc1c[nH]c2ccccc12 [Indole-3-carbinol] + Cc1cc(Nc2cc(N3CCN(C)CC3)nc(Sc3ccc(NC(=O)C4CC4)cc3)n2)n[nH]1 [Tozasertib] (partner 0.1 µM)
In short: as §1

[3] = compound: OCc1c[nH]c2ccccc12 [Indole-3-carbinol] + CC(=O)Nc1cccc(-n2c(=O)n(C3CC3)c(=O)c3c(Nc4ccc(I)cc4F)n(C)c(=O)c(C)c32)c1 [Trametinib] (partner 0.02 µM)
In short: as §1

[4] = compound: OCc1c[nH]c2ccccc12 [Indole-3-carbinol] + COc1cccc2cc(-c3nc([C@H]4CC[C@H](C(=O)O)CC4)n4ncnc(N)c34)[nH]c12 [OSI-027] (partner 0.5 µM)
In short: as §1

[5] = compound: OCc1c[nH]c2ccccc12 [Indole-3-carbinol] + CC1(C)CCC(c2ccc(Cl)cc2)=C(CN2CCN(c3ccc(C(=O)NS(=O)(=O)c4ccc(N[C@H](CCN5CCOCC5)CSc5ccccc5)c(S(=O)(=O)C(F)(F)F)c4)cc3)CC2)C1 [Navitoclax] (partner 0.5 µM)
In short: as §1

| Cell Line | relative viability ([1]; first compound 0.253 µM) | relative viability ([1]; first compound 0.8 µM) | relative viability ([1]; first compound 2.53 µM) | relative viability ([1]; first compound 8 µM) | relative viability ([2]; first compound 0.253 µM) | relative viability ([2]; first compound 0.8 µM) | relative viability ([2]; first compound 2.53 µM) | relative viability ([2]; first compound 8 µM) | relative viability ([3]; first compound 0.253 µM) | relative viability ([3]; first compound 0.8 µM) | relative viability ([3]; first compound 2.53 µM) | relative viability ([3]; first compound 8 µM) | relative viability ([4]; first compound 0.253 µM) | relative viability ([4]; first compound 0.8 µM) | relative viability ([4]; first compound 2.53 µM) | relative viability ([4]; first compound 8 µM) | relative viability ([5]; first compound 0.253 µM) | relative viability ([5]; first compound 0.8 µM) | relative viability ([5]; first compound 2.53 µM) | relative viability ([5]; first compound 8 µM) |
| --- | --- | --- | --- | --- | --- | --- | --- | --- | --- | --- | --- | --- | --- | --- | --- | --- | --- | --- | --- | --- |
| PC-3 [JPC-3] | 1.17 | 1.29 | 1.11 | 1.03 | 0.873 | 0.981 | 0.879 | 0.866 | 0.749 | 0.719 | 0.678 | 0.667 | 0.714 | 0.741 | 0.704 | 0.745 | 0.8 | 0.804 | 0.823 | 0.783 |
| PC-14 | 0.292 | 0.285 | 0.268 | 0.221 | 0.578 | 0.585 | 0.633 | 0.554 | 0.7 | 0.729 | 0.818 | 0.711 | 0.756 | 0.828 | 0.873 | 0.706 | 1.01 | 1.1 | 1.07 | 0.961 |
| RERF-LC-KJ | 0.878 | 0.93 | 0.957 | 0.801 | 0.441 | 0.518 | 0.546 | 0.509 | 0.812 | 0.904 | 0.943 | 0.825 | 0.556 | 0.545 | 0.585 | 0.601 | 1.12 | 0.907 | 0.971 | 1.04 |
| SK-LU-1 | 0.478 | 0.438 | 0.569 | 0.589 | 0.303 | 0.356 | 0.367 | 0.302 | 0.637 | 0.453 | 0.469 | 0.582 | 0.359 | 0.322 | 0.382 | 0.314 | 0.899 | 0.783 | 0.795 | 0.653 |
| SK-MES-1 | 0.758 | 0.888 | 0.632 | 0.615 | 0.904 | 1.04 | 0.932 | 0.907 | 0.539 | 0.627 | 0.56 | 0.54 | 0.596 | 0.642 | 0.588 | 0.537 | 1.28 | 1.3 | 1.18 | 1.18 |
| SW 1573 | 0.499 | 0.526 | 0.546 | 0.479 | 0.187 | 0.233 | 0.135 | 0.176 | 0.512 | 0.605 | 0.534 | 0.564 | 0.639 | 0.593 | 0.804 | 0.521 | 1.1 | 1.13 | 1.03 | 0.901 |
| UMC-11 | 0.549 | 0.359 | 0.499 | 0.944 | 0.196 | 0.202 | 0.187 | 0.204 | 0.713 | 0.727 | 0.675 | 0.683 | 0.443 | 0.495 | 0.464 | 0.472 | 0.259 | 0.308 | 0.329 | 0.325 |
